Measured values reported in the NIST ThermoML archive (doi:10.1021/acs.jced.5b00242).
Numbers after ± are expanded uncertainties.

Tests used:
[1] = Liquid; for mass density: Vibrating tube method
[2] = refractive index (Na D-line) (dimensionless); conditions: 101 kPa, Liquid, Standard Abbe refractometry
[3] = 293.15 K, 101 kPa, Stabinger Viscometer
[4] = 298.15 K, 101 kPa, Stabinger Viscometer
[5] = 303.15 K, 101 kPa, Stabinger Viscometer
[6] = 308.15 K, 101 kPa, Stabinger Viscometer
[7] = 313.15 K, 101 kPa, Stabinger Viscometer
[8] = 318.15 K, 101 kPa, Stabinger Viscometer
[9] = 323.15 K, 101 kPa, Stabinger Viscometer
[10] = 328.15 K, 101 kPa, Stabinger Viscometer
[11] = 333.15 K, 101 kPa, Stabinger Viscometer
[12] = 338.15 K, 101 kPa, Stabinger Viscometer
[13] = 343.15 K, 101 kPa, Stabinger Viscometer
[14] = 348.15 K, 101 kPa, Stabinger Viscometer
[15] = 353.15 K, 101 kPa, Stabinger Viscometer

With `CCn1cc[n+](C)c1.C[C@H](N)C(=O)[O-]` [1-ethyl-3-methylimidazolium L-alaninate] the viscosity [1, 3] was 382.06 ± 28 mPa·s, the mass density ([1]; 293.15 K, 101.33 kPa) was 1126.3 ± 13 kg/m3 and the viscosity [1, 4] was 263.98 ± 16 mPa·s. For the same compound, the mass density ([1]; 298.15 K, 101.33 kPa) was 1123 ± 13 kg/m3, the viscosity [1, 5] was 187.79 ± 9.8 mPa·s and the mass density ([1]; 303.15 K, 101.33 kPa) was 1119.8 ± 13 kg/m3. It also gave a viscosity [1, 6] of 137.47 ± 6.2 mPa·s, a mass density ([1]; 308.15 K, 101.33 kPa) of 1116.6 ± 13 kg/m3 and a viscosity [1, 7] of 103.54 ± 4.1 mPa·s. The mass density ([1]; 313.15 K, 101.33 kPa) was 1113.5 ± 13 kg/m3, the viscosity [1, 8] was 79.34 ± 2.8 mPa·s and the mass density ([1]; 318.15 K, 101.33 kPa) was 1110.5 ± 13 kg/m3. For the same compound, the viscosity [1, 9] was 62.21 ± 2 mPa·s, the mass density ([1]; 323.15 K, 101.33 kPa) was 1107.5 ± 13 kg/m3 and the viscosity [1, 10] was 49.69 ± 1.6 mPa·s. It also gave a mass density ([1]; 328.15 K, 101.33 kPa) of 1104.4 ± 13 kg/m3, a viscosity [1, 11] of 40.5 ± 1.3 mPa·s and a mass density ([1]; 333.15 K, 101.33 kPa) of 1101.3 ± 12 kg/m3. For the same compound, the viscosity [1, 12] was 33.22 ± 1.1 mPa·s, the mass density ([1]; 338.15 K, 101.33 kPa) was 1098.3 ± 12 kg/m3 and the viscosity [1, 13] was 27.72 ± 0.91 mPa·s. The mass density ([1]; 343.15 K, 101.33 kPa) was 1095.2 ± 12 kg/m3, the viscosity [1, 14] was 23.38 ± 0.77 mPa·s and the mass density ([1]; 348.15 K, 101.33 kPa) was 1092.1 ± 12 kg/m3. The viscosity [1, 15] was 20.03 ± 0.66 mPa·s, the mass density ([1]; 353.15 K, 101.33 kPa) was 1088.9 ± 12 kg/m3 and the refractive index ([2]; 293.15 K) was 1.51366 ± 0.0011. It also gave a refractive index ([2]; 298.15 K) of 1.51223 ± 0.0011, a refractive index ([2]; 303.15 K) of 1.51081 ± 0.0011 and a refractive index ([2]; 308.15 K) of 1.50937 ± 0.0011. The refractive index ([2]; 313.15 K) was 1.50793 ± 0.0011, the refractive index ([2]; 318.15 K) was 1.50651 ± 0.0011 and the refractive index ([2]; 323.15 K) was 1.50505 ± 0.0011. The refractive index ([2]; 328.15 K) was 1.50358 ± 0.0011, the refractive index ([2]; 333.15 K) was 1.50217 ± 0.0011 and the refractive index ([2]; 338.15 K) was 1.50074 ± 0.0011. For the same compound, the refractive index ([2]; 343.15 K) was 1.49932 ± 0.0011, the refractive index ([2]; 348.15 K) was 1.49795 ± 0.0011 and the refractive index ([2]; 353.15 K) was 1.49656 ± 0.0011.
With `CCn1cc[n+](C)c1.N#C[C-](C#N)C#N` [1-ethyl-3-methyl-1H-imidazolium tricyanomethanide] the viscosity ([1]; 293.15 K, 101 kPa, Stabinger viscometer) was 16.62 ± 0.7 mPa·s, the mass density ([1]; 293.15 K, 101 kPa) was 1085 ± 4 kg/m3 and the viscosity ([1]; 298.15 K, 101 kPa, Stabinger viscometer) was 14.19 ± 0.6 mPa·s. It also gave a mass density ([1]; 298.15 K, 101 kPa) of 1081 ± 4 kg/m3, a viscosity ([1]; 303.15 K, 101 kPa, Stabinger viscometer) of 12.18 ± 0.51 mPa·s and a mass density ([1]; 303.15 K, 101 kPa) of 1077 ± 4 kg/m3. It also gave a viscosity ([1]; 308.15 K, 101 kPa, Stabinger viscometer) of 10.58 ± 0.44 mPa·s, a mass density ([1]; 308.15 K, 101 kPa) of 1074 ± 4 kg/m3 and a viscosity ([1]; 313.15 K, 101 kPa, Stabinger viscometer) of 9.02 ± 0.38 mPa·s. It also gave a mass density ([1]; 313.15 K, 101 kPa) of 1070 ± 4 kg/m3, a viscosity ([1]; 318.15 K, 101 kPa, Stabinger viscometer) of 8.2 ± 0.34 mPa·s and a mass density ([1]; 318.15 K, 101 kPa) of 1067 ± 4 kg/m3. It also gave a viscosity ([1]; 323.15 K, 101 kPa, Stabinger viscometer) of 7.31 ± 0.31 mPa·s, a mass density ([1]; 323.15 K, 101 kPa) of 1064 ± 4 kg/m3 and a viscosity ([1]; 328.15 K, 101 kPa, Stabinger viscometer) of 6.56 ± 0.28 mPa·s. For the same compound, the mass density ([1]; 328.15 K, 101 kPa) was 1060 ± 4 kg/m3, the viscosity ([1]; 333.15 K, 101 kPa, Stabinger viscometer) was 5.72 ± 0.24 mPa·s and the mass density ([1]; 333.15 K, 101 kPa) was 1057 ± 4 kg/m3. It also gave a viscosity ([1]; 338.15 K, 101 kPa, Stabinger viscometer) of 5.38 ± 0.23 mPa·s, a mass density ([1]; 338.15 K, 101 kPa) of 1054 ± 4 kg/m3 and a viscosity ([1]; 343.15 K, 101 kPa, Stabinger viscometer) of 4.91 ± 0.21 mPa·s. It also gave a mass density ([1]; 343.15 K, 101 kPa) of 1050 ± 4 kg/m3, a viscosity ([1]; 348.15 K, 101 kPa, Stabinger viscometer) of 4.5 ± 0.19 mPa·s and a mass density ([1]; 348.15 K, 101 kPa) of 1047 ± 4 kg/m3. The viscosity ([1]; 353.15 K, 101 kPa, Stabinger viscometer) was 3.98 ± 0.17 mPa·s, the mass density ([1]; 353.15 K, 101 kPa) was 1043 ± 4 kg/m3 and the refractive index ([2]; 293.15 K) was 1.51454 ± 0.00063. It also gave a refractive index ([2]; 298.15 K) of 1.51286 ± 0.00063, a refractive index ([2]; 303.15 K) of 1.51114 ± 0.00063 and a refractive index ([2]; 308.15 K) of 1.50938 ± 0.00063. It also gave a refractive index ([2]; 313.15 K) of 1.50765 ± 0.00063, a refractive index ([2]; 318.15 K) of 1.50595 ± 0.00063 and a refractive index ([2]; 323.15 K) of 1.50419 ± 0.00063. For the same compound, the refractive index ([2]; 328.15 K) was 1.50255 ± 0.00063, the refractive index ([2]; 333.15 K) was 1.50087 ± 0.00063 and the refractive index ([2]; 338.15 K) was 1.49921 ± 0.00063. The refractive index ([2]; 343.15 K) was 1.49757 ± 0.00063, the refractive index ([2]; 348.15 K) was 1.49593 ± 0.00063 and the refractive index ([2]; 353.15 K) was 1.49429 ± 0.00063.
Work on `CCn1cc[n+](C)c1.O=C([O-])[C@@H]1CCCN1` [1-ethyl-3-methyl-1H-imidazolium L-prolinate] yielded a viscosity [1, 3] of 1928.4 ± 240 mPa·s, a mass density ([1]; 293.15 K, 101.33 kPa) of 1145.9 ± 7.3 kg/m3 and a viscosity [1, 4] of 1194.6 ± 130 mPa·s. It also gave a mass density ([1]; 298.15 K, 101.33 kPa) of 1142.8 ± 7.2 kg/m3, a viscosity [1, 5] of 771.51 ± 72 mPa·s and a mass density ([1]; 303.15 K, 101.33 kPa) of 1139.6 ± 7.2 kg/m3. It also gave a viscosity [1, 6] of 517.61 ± 42 mPa·s, a mass density ([1]; 308.15 K, 101.33 kPa) of 1136.4 ± 7.2 kg/m3 and a viscosity [1, 7] of 359.21 ± 25 mPa·s. The mass density ([1]; 313.15 K, 101.33 kPa) was 1133.2 ± 7.2 kg/m3, the viscosity [1, 8] was 256.92 ± 15 mPa·s and the mass density ([1]; 318.15 K, 101.33 kPa) was 1130.1 ± 7.1 kg/m3. For the same compound, the viscosity [1, 9] was 188.66 ± 9.1 mPa·s, the mass density ([1]; 323.15 K, 101.33 kPa) was 1127.1 ± 7.1 kg/m3 and the viscosity [1, 10] was 141.76 ± 5.8 mPa·s. The mass density ([1]; 328.15 K, 101.33 kPa) was 1124 ± 7.1 kg/m3, the viscosity [1, 11] was 108.85 ± 3.8 mPa·s and the mass density ([1]; 333.15 K, 101.33 kPa) was 1121 ± 7.1 kg/m3. For the same compound, the viscosity [1, 12] was 85.12 ± 2.6 mPa·s, the mass density ([1]; 338.15 K, 101.33 kPa) was 1118 ± 7.1 kg/m3 and the viscosity [1, 13] was 67.69 ± 1.8 mPa·s. The mass density ([1]; 343.15 K, 101.33 kPa) was 1115 ± 7 kg/m3, the viscosity [1, 14] was 54.73 ± 1.4 mPa·s and the mass density ([1]; 348.15 K, 101.33 kPa) was 1112 ± 7 kg/m3. The viscosity [1, 15] was 44.89 ± 1.2 mPa·s, the mass density ([1]; 353.15 K, 101.33 kPa) was 1109.1 ± 7 kg/m3 and the refractive index ([2]; 293.15 K) was 1.52291 ± 0.00069. It also gave a refractive index ([2]; 298.15 K) of 1.52151 ± 0.00069, a refractive index ([2]; 303.15 K) of 1.52009 ± 0.00069 and a refractive index ([2]; 308.15 K) of 1.5187 ± 0.00069. It also gave a refractive index ([2]; 313.15 K) of 1.51731 ± 0.00069, a refractive index ([2]; 318.15 K) of 1.51591 ± 0.00069 and a refractive index ([2]; 323.15 K) of 1.51454 ± 0.00069. For the same compound, the refractive index ([2]; 328.15 K) was 1.51315 ± 0.00069, the refractive index ([2]; 333.15 K) was 1.51177 ± 0.00069 and the refractive index ([2]; 338.15 K) was 1.51035 ± 0.00069. It also gave a refractive index ([2]; 343.15 K) of 1.50897 ± 0.00069, a refractive index ([2]; 348.15 K) of 1.50757 ± 0.00069 and a refractive index ([2]; 353.15 K) of 1.5062 ± 0.00069.
